In patent US11999733B2, “Diacylglycerol kinase modulating compounds” (Gilead Sciences, Inc., priority 2021, dated 2024):

target: human DGKα (Homo sapiens, UniProt P23743); assay: biochemical
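Note: recombinant enzyme acting on 18:1 DAG micelles (with POPS and octylglucoside) plus 200 µM ATP, 1 h at 25 °C, ADP generated read out by ADP-Glo luminescence.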

human DGKα, sequence (P23743 whole entry): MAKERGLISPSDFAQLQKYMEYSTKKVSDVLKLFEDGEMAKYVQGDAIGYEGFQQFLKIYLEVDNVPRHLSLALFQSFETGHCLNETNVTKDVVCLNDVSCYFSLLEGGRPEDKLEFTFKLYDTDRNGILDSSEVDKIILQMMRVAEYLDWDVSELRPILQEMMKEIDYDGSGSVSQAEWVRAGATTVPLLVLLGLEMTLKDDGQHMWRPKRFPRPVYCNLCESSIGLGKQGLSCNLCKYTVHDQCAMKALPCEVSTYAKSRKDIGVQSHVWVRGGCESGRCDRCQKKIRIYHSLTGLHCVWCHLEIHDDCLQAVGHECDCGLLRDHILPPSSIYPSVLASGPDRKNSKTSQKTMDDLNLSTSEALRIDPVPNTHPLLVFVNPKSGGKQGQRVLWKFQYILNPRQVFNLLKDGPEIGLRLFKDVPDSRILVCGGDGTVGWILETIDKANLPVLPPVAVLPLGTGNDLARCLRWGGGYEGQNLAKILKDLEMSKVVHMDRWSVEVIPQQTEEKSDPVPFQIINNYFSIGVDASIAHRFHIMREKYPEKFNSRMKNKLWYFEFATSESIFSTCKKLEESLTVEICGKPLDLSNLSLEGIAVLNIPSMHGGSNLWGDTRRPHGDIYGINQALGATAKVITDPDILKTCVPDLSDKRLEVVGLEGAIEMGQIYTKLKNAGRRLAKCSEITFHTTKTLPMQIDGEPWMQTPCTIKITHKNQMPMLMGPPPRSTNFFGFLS

Compound | IC50 [nM]
CCC1(C#Cc2cccc3c2OCCCN3c2nc3nnn(C)c3c3cncc(F)c23)COC1 [Example 1, 9-((3-ethyloxetan-3-yl)ethynyl)-5-(6-fluoro-1-methyl-1H-[1,2,3]triazolo[4,5-c][2,6]naphthyridin-5-yl)-2,3,4,5-tetrahydrobenzo[b][1,4]oxazepine] | 10.5
CCC1(C#Cc2cccc3c2COCCN3c2nc3nnn(C)c3c3cncc(F)c23)COC1 [Example 3, 6-((3-ethyloxetan-3-yl)ethynyl)-1-(6-fluoro-1-methyl-1H-[1,2,3]triazolo[4,5-c][2,6]naphthyridin-5-yl)-1,2,3,5-tetrahydrobenzo[e][1,4]oxazepine] | 2.73
Cn1nnc2nc(N3CCOCc4c(C#CC5(C)COC5)cccc43)c3c(F)cncc3c21 [Example 4, 1-(6-fluoro-1-methyl-1H-[1,2,3]triazolo[4,5-c][2,6]naphthyridin-5-yl)-6-((3-methyloxetan-3-yl)ethynyl)-1,2,3,5-tetrahydrobenzo[e][1,4]oxazepine] | 2.26
Cn1nnc2nc(N3CCCc4c(C#CC(C)(C)C#N)cccc43)c3c(F)cncc3c21 [Example 5, 4-(1-(6-fluoro-1-methyl-1H-[1,2,3]triazolo[4,5-c][2,6]naphthyridin-5-yl)-1,2,3,4-tetrahydroquinolin-5-yl)-2,2-dimethylbut-3-ynenitrile] | 20.8
Cn1nnc2nc(N3CCCOc4c(C#CC5(C)CC5)cccc43)c3c(F)cncc3c21 [Example 7, 5-(6-fluoro-1-methyl-1H-[1,2,3]triazolo[4,5-c][2,6]naphthyridin-5-yl)-9-((1-methylcyclopropyl)ethynyl)-2,3,4,5-tetrahydrobenzo[b][1,4]oxazepine] | 11.5
Cn1nnc2nc(N3CCCOc4c(C#CC(C)(C)C#N)cccc43)c3c(F)cncc3c21 [Example 8, 4-(5-(6-fluoro-1-methyl-1H-[1,2,3]triazolo[4,5-c][2,6]naphthyridin-5-yl)-2,3,4,5-tetrahydrobenzo[b][1,4]oxazepin-9-yl)-2,2-dimethylbut-3-ynenitrile] | 10.2
Cn1nnc2nc(N3CCCOc4c(C#CC(C)(C)O)cccc43)c3c(F)cncc3c21 [Example 10, 4-(5-(6-fluoro-1-methyl-1H-[1,2,3]triazolo[4,5-c][2,6]naphthyridin-5-yl)-2,3,4,5-tetrahydrobenzo[b][1,4]oxazepin-9-yl)-2-methylbut-3-yn-2-ol] | 13
Cn1nnc2nc(N3CCOCc4c(C#CC5(C)CC5)cccc43)c3c(F)cncc3c21 [Example 11, 1-(6-fluoro-1-methyl-1H-[1,2,3]triazolo[4,5-c][2,6]naphthyridin-5-yl)-6-((1-methylcyclopropyl)ethynyl)-1,2,3,5-tetrahydrobenzo[e][1,4]oxazepine] | 8.59
Cn1nnc2nc(N3CCCCc4c(C#CC(C)(C)O)cccc43)c3c(F)cncc3c21 [Example 15, 4-(1-(6-fluoro-1-methyl-1H-[1,2,3]triazolo[4,5-c][2,6]naphthyridin-5-yl)-2,3,4,5-tetrahydro-1H-benzo[b]azepin-6-yl)-2-methylbut-3-yn-2-ol] | 5.42
Cn1nnc2nc(N(CC(F)F)c3cc(F)cc(C#CC(C)(C)C#N)c3)c3c(F)cncc3c21 [Example 16, 4-(3-((2,2-difluoroethyl)(6-fluoro-1-methyl-1H-[1,2,3]triazolo[4,5-c][2,6]naphthyridin-5-yl)amino)-5-fluorophenyl)-2,2-dimethylbut-3-ynenitrile] | 42.2
Cn1nnc2nc(N(CC(F)F)c3ccnc(C#CC4(C)CC4)c3)c3c(F)c(F)ccc3c21 [Example 17, N-(2,2-difluoroethyl)-6,7-difluoro-1-methyl-N-(2-((1-methylcyclopropyl)ethynyl)pyridin-4-yl)-1H-[1,2,3]triazolo[4,5-c]isoquinolin-5-amine] | 61.8
Cn1nnc2nc(N(CC(F)F)c3ccnc(C#CC4(C)CC4)c3)c3c(F)cncc3c21 [Example 19, N-(2,2-difluoroethyl)-6-fluoro-1-methyl-N-(2-((1-methylcyclopropyl)ethynyl)pyridin-4-yl)-1H-[1,2,3]triazolo[4,5-c][2,6]naphthyridin-5-amine] | 31.4
Cn1nnc2nc(N(CC(F)F)c3ccnc(C#CC(C)(C)C#N)c3)c3c(F)cncc3c21 [Example 20, 4-(4-((2,2-difluoroethyl)(6-fluoro-1-methyl-1H-[1,2,3]triazolo[4,5-c][2,6]naphthyridin-5-yl)amino)pyridin-2-yl)-2,2-dimethylbut-3-ynenitrile] | 109
Cn1nnc2nc(N3CCCc4c(C#CC5(C)CC5)cncc43)c3cc(F)ccc3c21 [Example 22, 7-fluoro-1-methyl-5-(5-((1-methylcyclopropyl)ethynyl)-3,4-dihydro-1,7-naphthyridin-1(2H)-yl)-1H-[1,2,3]triazolo[4,5-c]isoquinoline] | 124
Cn1nnc2nc(N(CC(F)F)c3ccnc(C#CC4(C)CC4)c3)c3c(F)cccc3c21 [Example 24, N-(2,2-difluoroethyl)-6-fluoro-1-methyl-N-(2-((1-methylcyclopropyl)ethynyl)pyridin-4-yl)-1H-[1,2,3]triazolo[4,5-c]isoquinolin-5-amine] | 54.5
Cn1nnc2nc(N(CC(F)F)c3ccnc(C#CC4(C)CC4)c3)c3cc(F)ccc3c21 [Example 25, N-(2,2-difluoroethyl)-7-fluoro-1-methyl-N-(2-((1-methylcyclopropyl)ethynyl)pyridin-4-yl)-1H-[1,2,3]triazolo[4,5-c]isoquinolin-5-amine] | 39.2
Cn1nnc2nc(N(CC(F)F)c3ccnc(C#CC(C)(C)O)c3)c3cc(F)ccc3c21 [Example 27, 4-(4-((2,2-difluoroethyl)(7-fluoro-1-methyl-1H-[1,2,3]triazolo[4,5-c]isoquinolin-5-yl)amino)pyridin-2-yl)-2-methylbut-3-yn-2-ol] | 143
Cn1nnc2nc(N3CCCc4c(C#CC(C)(C)C#N)cncc43)c3c(F)cccc3c21 [Example 30, 4-(1-(6-fluoro-1-methyl-1H-[1,2,3]triazolo[4,5-c]isoquinolin-5-yl)-1,2,3,4-tetrahydro-1,7-naphthyridin-5-yl)-2,2-dimethylbut-3-ynenitrile] | 160
Cn1nnc2nc(N3CCCc4c(C#CC(C)(C)O)cncc43)c3c(F)cncc3c21 [Example 32, 4-(1-(6-fluoro-1-methyl-1H-[1,2,3]triazolo[4,5-c][2,6]naphthyridin-5-yl)-1,2,3,4-tetrahydro-1,7-naphthyridin-5-yl)-2-methylbut-3-yn-2-ol] | 93
Cn1nnc2nc(N(CC(F)F)c3cc(F)cc(C#CC(C)(C)O)c3)c3cc(F)cnc3c21 [Example 34, 4-(3-((2,2-difluoroethyl)(7-fluoro-1-methyl-1H-[1,2,3]triazolo[4,5-h][1,6]naphthyridin-5-yl)amino)-5-fluorophenyl)-2-methylbut-3-yn-2-ol] | 26.1
Cn1nnc2nc(N3CCCc4c(C#CC(C)(C)C#N)cccc43)c3cc(F)cnc3c21 [Example 35, 4-(1-(7-fluoro-1-methyl-1H-[1,2,3]triazolo[4,5-h][1,6]naphthyridin-5-yl)-1,2,3,4-tetrahydroquinolin-5-yl)-2,2-dimethylbut-3-ynenitrile] | 50.7
Cn1nnc2nc(N(CC(F)F)c3cc(F)cc(C#CC4(C(F)(F)F)CC4)c3)c3c(F)cncc3c21 [Example 38, N-(2,2-difluoroethyl)-6-fluoro-N-(3-fluoro-5-((1-(trifluoromethyl)cyclopropyl)ethynyl)phenyl)-1-methyl-1H-[1,2,3]triazolo[4,5-c][2,6]naphthyridin-5-amine] | 51.6
Cn1nnc2nc(N3CCCc4c(C#CC5(C(F)(F)F)CC5)cccc43)c3c(F)cncc3c21 [Example 40, 6-fluoro-1-methyl-5-(5-((1-(trifluoromethyl)cyclopropyl)ethynyl)-3,4-dihydroquinolin-1(2H)-yl)-1H-[1,2,3]triazolo[4,5-c][2,6]naphthyridine] | 41.9
Cn1nnc2nc(N(CC(F)F)c3cc(F)cc(C#CC(C)(C)O)c3)c3cc(F)ccc3c21 [Example 43, 4-(3-((2,2-difluoroethyl)(7-fluoro-1-methyl-1H-[1,2,3]triazolo[4,5-c]isoquinolin-5-yl)amino)-5-fluorophenyl)-2-methylbut-3-yn-2-ol] | 34.1
Cn1nnc2nc(N3CCCc4c(C#CC(C)(C)O)cccc43)c3c(F)cccc3c21 [Example 45, 4-(1-(6-fluoro-1-methyl-1H-[1,2,3]triazolo[4,5-c]isoquinolin-5-yl)-1,2,3,4-tetrahydroquinolin-5-yl)-2-methylbut-3-yn-2-ol] | 19.4
Cn1nnc2nc(N(CC(F)F)c3cc(F)cc(C#CC4(C(F)(F)F)CC4)c3)c3c(F)cccc3c21 [Example 48, N-(2,2-difluoroethyl)-6-fluoro-N-(3-fluoro-5-((1-(trifluoromethyl)cyclopropyl)ethynyl)phenyl)-1-methyl-1H-[1,2,3]triazolo[4,5-c]isoquinolin-5-amine] | 64.9
Cn1nnc2nc(N3CCCc4c(C#CC5(C(F)(F)F)CC5)cccc43)c3ccc(Cl)cc3c21 [Example 50, 8-chloro-1-methyl-5-(5-((1-(trifluoromethyl)cyclopropyl)ethynyl)-3,4-dihydroquinolin-1(2H)-yl)-1H-[1,2,3]triazolo[4,5-c]isoquinoline] | 23.2
Cn1nnc2nc(N(CC(F)F)c3cc(F)cc(C#CC(C)(C)O)c3)c3ccc(Cl)cc3c21 [Example 51, 4-(3-((8-chloro-1-methyl-1H-[1,2,3]triazolo[4,5-c]isoquinolin-5-yl)(2,2-difluoroethyl)amino)-5-fluorophenyl)-2-methylbut-3-yn-2-ol] | 22.5
